Columns and labels:
Format in all cases: in vivo
corn [1] = assay: Post-emergence safener action in corn with the herbicide tembotrione; details: greenhouse, visual scoring of damage
Text: (§1) The damage to the plants is scored visually using a scale of 0-100%, in comparison to control plants:
(§2) 0%=no noticeable effect compared to the untreated plant
(§3) 100%=the treated plants dies.
(§4) Seeds or rhizome pieces of monocotyledonous and dicotyledonous harmful plants and crop plants are placed in sandy loam soil in plastic pots, covered with soil and cultivated in the greenhouse under good growth conditions. Alternatively, harmful plants encountered in paddy rice cultivation are cultivated in pots in which the surface of the soil is covered by up to 2 cm of water. Three weeks after sowing, the test plants are treated at the three-leaf stage. The herbicide/safener active compound combinations according to the invention, formulated as emulsion concentrates, and in parallel tests the individual active compounds formulated in a corresponding manner, are sprayed at various dosages at a water application rate of […] (converted) onto the green parts of the plants, and, after the test plants were left to stand in the greenhouse for about 2 to 3 weeks under optimum growth conditions, the effect of the preparations is scored visually in comparison to untreated controls. In the case of rice or harmful plants encountered in the cultivation of rice, the active compounds are also added directly to the irrigation water (application analogously to the so-called granule application) or sprayed onto the plants and into the irrigation water. […]

corn [2] = assay: Pre-emergence safener action in corn with the herbicide isoxaflutol; details: greenhouse, visual scoring after 3 to 4 weeks
Text: as §1, §2, §3
Seeds or rhizome pieces of monocotyledonous and dicotyledonous weed plants and crop plants were placed in sandy loam soil in plastic pots and covered with soil. The herbicide/safener active compound combinations according to the invention, formulated as suspension emulsion concentrates, and in parallel tests the individual active compounds formulated in a corresponding manner, were then, at various dosages at a water application rate of 600 to 800 l/ha (converted), applied to the surface of the covering soil.
After the treatment, the pots were placed in the greenhouse and kept under good growth conditions for the weeds and the crop plants. Visual scoring of the plant damage or emergence damage was carried out after the test plants had emerged after a test period of 3 to 4 weeks, in comparison to untreated controls.

barley = assay: Post-emergence safener action in barley with the herbicide mesosulfuron-methyl; details: greenhouse, visual scoring of damage
Text: as §1, §2, §3, §4

Q: For CNC(=O)c1ccc(C(F)(F)C(F)F)[nH]c1=O [Compound 1368, N-Methyl-2-oxo-6-(1,1,2,2-tetrafluoroethyl)-1,2-dihydropyridine-3-carboxamide], which “safener action for the herbicide tembotrione” value (corn [1]) is on record?
A: good safener action

Q: And the “safener action in combination with the herbicide isoxaflutol” value (shortened to “safener action in combination”) (corn [2])?
A: good safener action

Q: Which “safener action for the herbicide tembotrione” value (corn [1]) does the source give for CCC(C)NC(=O)c1ccc(C(F)(F)C(F)(F)C(F)(F)F)[nH]c1=O (centres unmarked) [Compound 1636] here?
A: good safener action

Q: What about the “safener action for the herbicide mesosulfuron-methyl” value (barley) of the same compound?
A: good safener action

Q: And the “safener action in combination” value (corn [2])?
A: good safener action

Q: What does the source list for CCC(C)NC(=O)c1ccc(C(F)(F)Cl)[nH]c1=O (centres unmarked) [Compound 155]?
A: safener action for the herbicide mesosulfuron-methyl (barley): good safener action; safener action in combination with the herbicide isoxaflutol (corn [2]): good safener action

Q: CCNC(=O)c1ccc(C(F)(F)C(F)(F)C(F)(F)F)[nH]c1=O [Compound 1597] was tested. Which “safener action for the herbicide tembotrione” value (corn [1]) did it give?
A: good safener action

Q: And the “safener action in combination” value (corn [2])?
A: good safener action

Q: CONC(=O)c1ccc(C(F)(F)Cl)[nH]c1=O [Compound 194] was tested. Which “safener action for the herbicide mesosulfuron-methyl” value (barley) did it give?
A: good safener action

Q: What about the “safener action in combination” value (corn [2]) of the same compound?
A: good safener action

Q: CC(C)CNC(=O)c1ccc(C(F)(F)C(F)(F)C(F)(F)F)[nH]c1=O [Compound 1625] was tested. Which “safener action for the herbicide tembotrione” value (corn [1]) did it give?
A: good safener action

Q: What about the “safener action in combination” value (corn [2]) of the same compound?
A: good safener action

Q: How did the “safener action for the herbicide mesosulfuron-methyl” value (barley) turn out when CCC(CC)NC(=O)c1ccc(C(F)(F)C(F)(F)F)[nH]c1=O [Compound 392] was run?
A: good safener action

Q: What about the “safener action in combination” value (corn [2]) of the same compound?
A: good safener action

Q: How did the “safener action for the herbicide tembotrione” value (corn [1]) turn out when NC(=O)c1ccc(C(F)(F)C(F)(F)F)[nH]c1=O [Compound 341, 2-Oxo-6-(pentafluoroethyl)-1,2-dihydropyridine-3-carboxamide] was run?
A: good safener action

Q: And the “safener action for the herbicide mesosulfuron-methyl” value (barley)?
A: good safener action

Q: What about the “safener action in combination” value (corn [2]) of the same compound?
A: good safener action

Q: What does the source list for CCONC(=O)c1ccc(C(F)(F)Cl)[nH]c1=O [Compound 193]?
A: safener action for the herbicide mesosulfuron-methyl (barley): good safener action; safener action in combination with the herbicide isoxaflutol (corn [2]): good safener action

Reference: US9102623B2, “Pyridinecarboxamides, useful-plant-protecting composition comprising them and processes for their preparation and their use” (Bayer Cropscience AG, priority 2007, dated 2015)
